Measurements taken from US10233221B2, “Peptide having eight amino acid sequences derived from cage and retaining anticancer activity and activity to promote anticancer drug sensitivity of anticancer drug-resistant cancer cells” (L-Base Co., Ltd., priority 2014, dated 2019).
Where no end group is shown, it is not given here. [ ]: non-standard residue; d: D form. The star is where a group is joined. FITC = O=C1OC2(c3ccc(O)cc3Oc3cc(O)ccc32)c2ccc(NC(=S)*)cc21

Assays:
[1] = biological target: T1, CAGE and GSK3β proteins in SNU387^R (Homo sapiens, UniProt Q86TM3); experiment: Immunoprecipitation of CAGE and GSK3β; type: cell-based
T1 construct: Celastrol-resistant liver cancer cell line (SNU387^R) and melanoma cell line (Malme3M^R) having high expression of CAGE; endogenous in cells; host or cells: SNU387^R (Celastrol-resistant liver cancer cell line)
T1 sequence (Q86TM3 whole entry): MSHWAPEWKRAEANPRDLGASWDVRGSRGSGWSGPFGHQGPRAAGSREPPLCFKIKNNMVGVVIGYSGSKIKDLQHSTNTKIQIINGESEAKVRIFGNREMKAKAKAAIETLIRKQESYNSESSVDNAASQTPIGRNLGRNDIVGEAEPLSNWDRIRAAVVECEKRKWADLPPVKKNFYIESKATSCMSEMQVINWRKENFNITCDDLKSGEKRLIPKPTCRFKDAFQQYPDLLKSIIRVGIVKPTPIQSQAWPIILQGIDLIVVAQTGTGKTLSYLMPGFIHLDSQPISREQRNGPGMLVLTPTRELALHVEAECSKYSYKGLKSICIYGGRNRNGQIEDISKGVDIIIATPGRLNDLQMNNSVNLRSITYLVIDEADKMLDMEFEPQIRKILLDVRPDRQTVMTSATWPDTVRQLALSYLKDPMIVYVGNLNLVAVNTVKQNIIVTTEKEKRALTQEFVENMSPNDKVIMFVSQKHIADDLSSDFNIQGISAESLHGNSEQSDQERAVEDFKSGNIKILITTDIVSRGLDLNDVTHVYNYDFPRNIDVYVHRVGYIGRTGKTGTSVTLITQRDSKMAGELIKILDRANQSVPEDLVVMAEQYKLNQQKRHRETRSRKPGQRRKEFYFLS
Description: (§1) In order to examine the intercellular migration and action mechanisms of AQTGTGKT (SEQ ID NO: 1 synthesized from L-amino acid) and D-AQTGTGKT (SEQ ID NO: 1 synthesized from D-amino acid) peptides, each of the peptides was prepared in a form of being conjugated to fluorescein isothiocyanate (FITC), and used to perform transfection, immunofluorescence, immunoprecipitation, and western blotting by known methods.
(§2) In addition, the cell lines were transfected with AQTGTGKT (SEQ ID NO: 1 synthesized from L-amino acid) or D-AQTGTGKT (SEQ ID NO: 1 synthesized from D-amino acid) peptide, and then subjected to immunoprecipitation and western blotting.

[2] = biological target: T2, CAGE and GSK3β proteins in Malme3M^R (Homo sapiens, UniProt Q86TM3); experiment: Immunoprecipitation of CAGE and GSK3β; type: cell-based
T2 construct: Celastrol-resistant liver cancer cell line (SNU387^R) and melanoma cell line (Malme3M^R) having high expression of CAGE; endogenous in cells; host or cells: Malme3M^R (Celastrol-resistant melanoma cell line)
T2 sequence (Q86TM3 whole entry): as above
Description: as §1, §2

[3] = test system: Celastrol-resistant liver cancer cell line (SNU387^R); experiment: Western blotting of PARP and FAK cleavage; type: cell-based; conditions: 1 μM peptide 24 hours, then 1 μM and 10 μM Celastrol and Taxol 1 hour, vs cell lines without peptide
Description: (§3) In order to examine the effects of AQTGTGKT (SEQ ID NO: 1 synthesized from L-amino acid) or D-AQTGTGKT (SEQ ID NO: 1 synthesized from D-amino acid) peptides on the anticancer drug resistance of cancer cells, MTT assay and western blotting were conducted by a known method.
(§4) Liver cancer cell line (SNU387^R) and melanoma cell line (Malme3M^R), which show resistance to Celastrol as an anticancer drug, were transfected with 1 μM AQTGTGKT (SEQ ID NO: 1 synthesized from L-amino acid) or D-AQTGTGKT (SEQ ID NO: 1 synthesized from D-amino acid) peptide for 24 hours, respectively, and then treated with 1 μM and 10 μM Celastrol and Taxol for 1 hour.

[4] = test system: Celastrol-resistant melanoma cell line (Malme3M^R); experiment: Western blotting of PARP and FAK cleavage; type: cell-based; conditions: 1 μM peptide 24 hours, then 1 μM and 10 μM Celastrol and Taxol 1 hour, vs cell lines without peptide
Description: as §3, §4

[5] = test system: Celastrol-resistant melanoma cell line (Malme3MR); experiment: Wound-healing migration assay; type: cell-based; conditions: 24-48 hours
Description: (§5) In order to examine the effects of AQTGTGKT (SEQ ID NO: 1 synthesized from L-amino acid) and D-AQTGTGKT (SEQ ID NO: 1 synthesized from D-amino acid) peptides on the migration, invasiveness, and angiogenesis inducing ability of anticancer drug-resistant cell line, the invasion assay, wound-healing migration assay, and intravital microscopy were carried out by conventional methods using Celastrol-resistant melanoma cell line (Malme3M^R).
(§6) Celastrol-resistant melanoma cell line (Malme3MR) or Taxol-resistant melanoma cell line (Malme3M^R-Taxol) was cultured in 24-well culture dishes, and wounded using a 1 ml tip by a conventional method, and then the migrating cells were counted for 24-48 hours.

[6] = test system: Taxol-resistant melanoma cell line (Malme3M^R-Taxol); experiment: Wound-healing migration assay; type: cell-based; conditions: 24-48 hours
Description: as §5, §6

[7] = test system: Malme3M^R tumor; experiment: Tumorigenicity of anticancer drug-resistant cell line in nude mouse; type: in vivo; conditions: 10 μg/mouse tail vein, 6 times every 3 days
Description: In order to examine that the AQTGTGKT (SEQ ID NO: 1 synthesized from L-amino acid) is a tumor-specific peptide, experiments were carried out by a known method using an anticancer drug-resistant cell line and an immune-deficient mouse.
Celastrol-resistant melanoma cell line (Malme3M^R) having high expression of CAGE was injected into the side of a nude mouse at 1×10^6 cells. When a tumor was grown to have a measurable tumor size, the tumor size was measured using a digital gauge at regular intervals, and the tumor size was calculated using a known formula (widest length×shortest length×0.5).
After the tumor was induced by the above method, AQTGTGKT (SEQ ID NO: 1 synthesized from L-amino acid) peptide (10 μg/mouse) was injected into the tail vein alone or in combination with Celastrol or Taxol anticancer drug in a total of 6 times every 3 days for 2 weeks, while the size of the tumor was measured.

[8] = test system: Malme3M^R tumor metastasis; experiment: Lung metastasis of anticancer drug-resistant cell line in nude mouse; type: in vivo; conditions: 10 μg/mouse tail vein, 6 times every 3 days from day 4
Description: In order to examine the effect of AQTGTGKT (SEQ ID NO: 1 synthesized from L-amino acid) peptide on tumor metastatic ability of an anticancer drug-resistant cell line, long metastasis was carried out using the anticancer drug-resistant cell line and an immunodeficient mouse by a known method.
Celastrol-resistant melanoma cell line (Malme3M^R) having high expression of CAGE was injected into the tail vein of a nude mouse at 1×10^6 cells, and then the metastasis of a tumor into the lung was induced for 2-3 weeks. From day 4 after tumor cell injection, AQTGTGKT (SEQ ID NO: 1 synthesized from L-amino acid) peptide (10 μg/mouse) was injected into the tail vein in a total of 6 times every 3 days, and the lung tissue was excised and the number of tumor nodules was measured by a known method.

[9] = test system: CAGE-GSK3β, GSK3β ser9, cyclin D1, MDR1 in tumor tissues; experiment: Western blotting and immunoprecipitation of tumor tissues; type: in vivo, nude mouse
Description: After the above experiments, the protein expression and activation were examined. The tumor tissues were disrupted by liquid nitrogen according to a known method, reacted with a dissolution buffer on ice for 30 minutes, and centrifuged at 13,000 rpm for 15 minutes, and then the supernatant solution was collected as a protein sample. Thereafter, this protein sample was subjected to western blotting and immunoprecipitation to examine the protein expression and activation and the interconnection of proteins.

[10] = test system: angiogenesis inducing ability of Malme3M^R; experiment: Angiogenesis, intravital microscopy; type: in vivo; conditions: conditioned media of treated Malme3M^R mixed with Matrigel, injected into BALB/C mice
Description: as §5
After Celastrol-resistant melanoma cell line (Malme3M^R) was treated with AQTGTGKT (SEQ ID NO: 1 synthesized from L-amino acid) or D-AQTGTGKT (SEQ ID NO: 1 synthesized from D-amino acid) peptide, the obtained conditioned media were mixed with Matrigel and then injected into BALB/C mice, and then the mice were injected with FITC-dextran to examine the effect on angiogenesis using intravital microscopy.

[11] = test system: GSK3β ser9 and Cyclin D1 in Malme3M^R; experiment: Western blotting of GSK3β ser9 and Cyclin D1; type: cell-based
Description: as §1
(§7) The same cell lines were transfected with AQTGTGKT (SEQ ID NO: 1 synthesized from L-amino acid) or FITC-AQTGTGKT (FITC-SEQ ID NO: 1) peptide, and then subjected to immunoprecipitation and western blotting.
as §2

[12] = test system: GSK3β ser9 and Cyclin D1 in SNU387^R; experiment: Western blotting of GSK3β ser9 and Cyclin D1; type: cell-based
Description: as §1, §7, §2

[13] = test system: CAGE-GSK3β, GSK3β ser9, Cyclin D1 in lung tissues; experiment: Immunoprecipitation and western blotting of lung tissues; type: in vivo, nude mouse
Text: After the protein was collected from the lung tissues by a conventional method, the protein expression and activation patterns were examined through immunoprecipitation and western blotting.

[14] = test system: SNU387^R; experiment: Intracellular migration, fluorescent microscope; type: cell-based; conditions: 24 hours after transfection
Description: as §1
(§8) Celastrol-resistant liver cancer cell line (SNU387^R) and melanoma cell line (Malme3M^R) having high expression of CAGE were transfected with FITC-AQTGTGKT (FITC-SEQ ID NO: 1) peptide, and after 24 hours, the cell lines were examined under a fluorescent microscope.

[15] = test system: Malme3M^R; experiment: Intracellular migration, fluorescent microscope; type: cell-based; conditions: 24 hours after transfection
Description: as §1, §8

[16] = test system: Malme3M^R tumor tissues; experiment: Tumor-specific migration (in vivo homing); design: species or system immunodeficient mice; conditions: 12 hours after tail vein injection; in vivo imaging of extracted tissues
Description: In order to examine that the AQTGTGKT (SEQ ID NO: 1 synthesized from L-amino acid) peptide is a tumor-specific peptide, experiments were carried out by a known method using FITC-AQTGTGKT (FITC-SEQ ID NO: 1) and anticancer drug-resistant cell lines and immunodeficient mice.
Celastrol-resistant melanoma cell line (Malme3M^R) having high expression of CAGE was injected into immunodeficient mice by a known method to induce tumors, and then 12 hours after FITC-AQTGTGKT (FITC-SEQ ID NO: 1) was injected into the tail vein, normal tissues (brain, heart, spleen, Liver, lung, etc.) and tumor tissues were extracted and examined using a small in vivo imaging system.

Substance | interconnection of CAGE and GSK3β proteins [1] | interconnection of CAGE and GSK3β proteins [2] | cleavage of PARP and FAK proteins [3] | cleavage of PARP and FAK proteins [4] | cell migration [5] | cell migration [6] | angiogenesis inducing ability [10] | dephosphorylation of GSK3β ser9 [11] | expression of Cyclin D1 [11] | dephosphorylation of GSK3β ser9 [12] | expression of Cyclin D1 [12] | further results
AQTGTGKT (listed as Homo sapiens) | inhibited | inhibited | significantly observed | significantly observed | inhibited | inhibited | remarkably reduced | inhibited | inhibited | inhibited | inhibited | tumorigenicity (tumor size) ([7]; alone): reduced; anticancer drug resistance (tumor size) ([7]; in combination with Celastrol or Taxol): reduced; tumor metastasis (number of lung tumor nodules) [8]: reduced; GSK3β ser9 dephosphorylation [9]: reductions; cyclin D1 expression [9]: reductions; expression of MDR1 [9]: inhibited; interconnection of CAGE and GSK3β proteins [9]: inhibited; dephosphorylation of GSK3β ser9 [13]: inhibited; expression of Cyclin D1 [13]: inhibited; interconnection of CAGE and GSK3β proteins [13]: inhibited
D-AQTGTGKT ([dA][dQ][dT]G[dT]G[dK][dT]; listed as Homo sapiens) | inhibited | inhibited | significantly observed | significantly observed | inhibited | inhibited | remarkably reduced | inhibited | inhibited | inhibited | inhibited | –
FITC-AQTGTGKT ({FITC}-AQTGTGKT; listed as Homo sapiens) [AQTGTGKT peptide conjugated to fluorescein isothiocyanate (FITC)] | – | – | – | – | – | – | – | inhibited | inhibited | inhibited | inhibited | migration of peptide into the cells [14]: migrated into the cells; migration of peptide into the cells [15]: migrated into the cells; migration to tumor tissues vs normal tissues [16]: migrated specifically to tumor tissues
